# ChEMBL document CHEMBL1130795, “Synthesis and SAR of a novel, potent and structurally simple LTD4 antagonist of the quinoline class” (Bioorg Med Chem Lett, 1998)
# Active and inactive are the calls of the source. The calls are words filed in the database; no cut-off is given here.
# Tests used:
# [1] = target: Cysteinyl leukotriene receptor 1 (Cavia porcellus); assay: In vitro for antagonistic activity against LTD4 receptor in guinea pig ileum
# [2] = target: T1, Cysteinyl leukotriene receptor 1 (Cavia porcellus, UniProt Q2NNR5); assay: In vitro inhibition of [3H]LTD4 binding to guinea pig lung membrane; type: tissue-based
# T1 sequence (Q2NNR5 whole entry): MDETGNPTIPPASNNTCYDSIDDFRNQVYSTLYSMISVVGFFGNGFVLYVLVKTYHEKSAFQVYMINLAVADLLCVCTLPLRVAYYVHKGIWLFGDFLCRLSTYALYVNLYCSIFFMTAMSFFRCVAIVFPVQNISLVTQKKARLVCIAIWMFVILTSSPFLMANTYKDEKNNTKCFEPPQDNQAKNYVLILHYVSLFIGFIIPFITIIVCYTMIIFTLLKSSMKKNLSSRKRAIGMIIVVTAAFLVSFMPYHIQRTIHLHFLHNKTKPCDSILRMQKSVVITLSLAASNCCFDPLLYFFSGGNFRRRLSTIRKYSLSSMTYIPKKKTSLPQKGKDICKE
# Cavia porcellus [3] = assay: Compound was evaluated in vivo for LTD4-induced bronchospasm in guinea pig; type: functional
# [4] = target: T2, Cysteinyl leukotriene receptor 1 (Cavia porcellus) (UniProt Q2NNR5); assay: In vitro antagonistic activity against LTD4 in guinea pig ileum at 200 nM; type: functional, tissue-based
# T2 sequence (whole entry): T1 sequence (Q2NNR5 whole entry)
# Cavia porcellus [5] = assay: Compound was evaluated in vivo for LTD4-induced bronchospasm in guinea pig; IA means inactive at 10 mg/kg p.o.; type: functional, organism-based; design: dose 10 mg/kg
# [6] = target: T2, Cysteinyl leukotriene receptor 1 (Cavia porcellus); assay: In vitro antagonistic activity against LTD4 in guinea pig ileum at 240 nM; type: functional, tissue-based
IC50 [1],Compound,other results
200 nM,O=C(O)CCC(=O)Nc1cccc(OCc2ccc3ccc(F)cc3n2)c1,–
10 nM,O=C(CC1(C(=O)O)CCCC1)Nc1cccc(OCc2ccc3ccc(F)cc3n2)c1,–
0.9 nM,CCC(CC)(CC(=O)Nc1cccc(OCc2ccc3ccccc3n2)c1)C(=O)O,IC50 [2]: 9 nM; ED50 (Cavia porcellus [3]): 0.42 mg/kg
–,CCC(CC)(CC(=O)Nc1cccc(OCc2ccc3ccc(OCc4ccccc4)cc3n2)c1)C(=O)O,inhibition [4]: 0%
3 nM,CCC(CC)(CC(=O)Nc1cccc(OCc2ccc3ccc(C(F)(F)F)cc3n2)c1)C(=O)O,ED50 (Cavia porcellus [5]): inactive
0.4 nM,CCC(CC)(CC(=O)Nc1cccc(/C=C/c2ccc3ccc(F)cc3n2)c1)C(=O)O,–
11 nM,CCC(CC)(CC(=O)Nc1cccc(OCc2ccc3cc(C)c(C)cc3n2)c1)C(=O)O,–
9 nM,CCC(CC)(CC(=O)Nc1cccc(OCc2ccc3cc4c(cc3n2)CCC4)c1)C(=O)O,–
6 nM,CCC(CC)(CC(=O)Nc1cccc(OCc2ccc3cccc(F)c3n2)c1)C(=O)O,–
2 nM,CCCC(CCC)(CC(=O)Nc1cccc(OCc2ccc3ccc(F)cc3n2)c1)C(=O)O,–
0.8 nM,CCC(CC)(CC(=O)Nc1cccc(OCc2ccc3ccc(Cl)cc3n2)c1)C(=O)O,IC50 [2]: 64 nM; ED50 (Cavia porcellus [3]): 0.11 mg/kg
3900 nM,CCC(CC)(CC(=O)Nc1cccc(COc2ccc3ccccc3n2)c1)C(=O)O,–
0.2 nM,CCC(CC)(CC(=O)Nc1cccc(OCc2ccc3ccc(F)cc3n2)c1)C(=O)O,IC50 [2]: 6 nM; ED50 (Cavia porcellus [3]): 0.07 mg/kg
–,COc1cc(C(=O)NS(=O)(=O)c2ccccc2C)ccc1Cc1cn(C)c2ccc(NC(=O)OC3CCCC3)cc12 [ZAFIRLUKAST],ED50 (Cavia porcellus [3]): 0.55 mg/kg
24 nM,CCC(CC)(CC(=O)Nc1cccc(OCc2ccc3cc(C)ccc3n2)c1)C(=O)O,–
2500 nM,CCC(CC)(CC(=O)Nc1cccc(OCc2ccc3ccc(C(C)=O)cc3n2)c1)C(=O)O,–
2 nM,CCC(CC)(CC(=O)Nc1cccc(OCc2ccc3cc(F)ccc3n2)c1)C(=O)O,–
11 nM,CCC(CC)(CC(=O)Nc1cccc(OCc2ccc3ccc(C)cc3n2)c1)C(=O)O,–
6.4 nM,CCC(C)(CC(=O)Nc1cccc(OCc2ccc3ccc(F)cc3n2)c1)C(=O)O (configuration not stated),–
–,CCC(CC)(CC(=O)Nc1cccc(OCc2ccc3ccc(O)cc3n2)c1)C(=O)O,inhibition [6]: 0%
7.3 nM,O=C(CC1(C(=O)O)CCCCC1)Nc1cccc(OCc2ccc3ccc(F)cc3n2)c1,–
0.3 nM,CCC(CC)(CC(=O)Nc1cccc(OCc2ccc3c(F)cccc3n2)c1)C(=O)O,–
4 nM,CCC(CC)(CC(=O)Nc1cccc(OCc2ccc3ccc(Br)cc3n2)c1)C(=O)O,–
140 nM,CCC(CC)(CC(=O)O)C(=O)Nc1cccc(OCc2ccc3ccc(F)cc3n2)c1,–
80 nM,CCC(CC)(CC(=O)Nc1cccc(OCc2ccc3ccc(OC)cc3n2)c1)C(=O)O,–
4 nM,CCC(CC)(CC(=O)Nc1cccc(SCc2ccc3ccc(F)cc3n2)c1)C(=O)O,–
9 nM,CCC(CC)(CC(=O)Nc1cccc(OCc2ccc3ccc(OC(F)(F)F)cc3n2)c1)C(=O)O,–
1.4 nM,CC(C)(CC(=O)Nc1cccc(OCc2ccc3ccc(F)cc3n2)c1)C(=O)O,–
1 nM,CCCCC(CCCC)(CC(=O)Nc1cccc(OCc2ccc3ccc(F)cc3n2)c1)C(=O)O,–
0.5 nM,CCC(CC)(CC(=O)Nc1cccc(OCc2ccc3cc(F)c(F)cc3n2)c1)C(=O)O,–
